Source: US8067408B2, “Dual pharmacophores—PDE4-muscarinic antagonistics” (priority 2008, dated 2011)

Tested on: M1, M2 (w/Gqi5) and M3 ACh receptors stably expressed in CHO cells
Experiment: Calcium mobilization (FLIPR) IC50 determination for antagonists of ACh induced muscarinic receptor activation
Format: cell-based, human
Conditions: EC80 concentration of ACh, active if IC50 of between 33 uM and 10 nM or less, receptor subtype (M1/M2/M3) not specified
Description: Calcium Mobilization Studies (FLIPR)
Studies to determine the effectiveness of antagonists to cause blockade of functional intracellular calcium fluxes following agonist (ACh) treatment of cloned human receptors.
This system is used for characterizations of antagonist-receptor interactions using four distinct variations of the FLIPR methodology: (a) potency: IC50 determination, (b) potency: pA2 determination, (c) reversibility of antagonist-receptor interaction, or (d) confirmation of no functional agonist activity. • Cell Source The human M1-M3 receptors are cloned and stably expressed in Chinese Hamster Ovary (CHO) cells. The M2 receptors are co-expressed with the chimeric G protein, Gqi5. • Cell lines: M1 stable: Biocat #1044; M2+Gqi5 stable: Biocat #95663; M3 stable: Biocat #1049 • Method of Culture: CHO-M1, CHO-Gqi5-M2 and CHO-M3 cells are cultured to confluence at 37° C. in a humidified incubator with 5% CO2/95% air. CHO-M1 and CHO-M3 are cultured in Alpha MEM with nucleosides and L-glutamine and 10% fetal calf serum. […] The emitted fluorescence from all 96 wells is measured simultaneously using a cooled CCD camera. Data points are collected every second. Maximal change in emission from each well after simultaneous addition of agonist or compound to each of the 96 wells is then exported to an excel spreadsheet. […] Experimental Protocols: • Cell plating: A microtiter plate based calcium mobilization FLIPR (Fluorometric Imaging Plate Reader, Molecular Devices, Sunnyvale Calif., [Schroeder KS, Neagle, BD. FLIPR: a new instrument for accurate, high throughput optical screening. J. Biomol. Screen. 1996; 1:75.]) assay is used for the functional characterization of compounds against M1, M2 (w/Gqi5) and M3 ACh receptors stably expressed in CHO cells. […] The basal emission fluorescence is measured, then the cellular response to an EC80 concentration of ACh (3.3 nM against M1, 10 nM against M2 and 1.0 nM against M3) prepared in KRH assay buffer with 0.1% BSA (no gelatin), is monitored in FLIPR for 90 seconds and then 50 μL of 100 μM ATP (assay concentration of 20 μM) is added to check cell viability (H. M. Sarau et al, 1999. Mol. Pharmacol. 56, 657-663). […]

Compound: CCc1nc2c(cnn2CC)c(NC2CCOCC2)c1CNCc1cccc(C(=O)NCc2ccc(F)c(-c3cccc(CN4CCNCC4)c3)c2)c1 [Example 228, 3-[({[1,6-Diethyl-4-(tetrahydro-2H-pyran-4-ylamino)-1H-pyrazolo[3,4-b]pyridin-5-yl]methyl}amino)methyl]-N-{[6-fluoro-3′-(1-piperazinylmethyl)-3-biphenylyl]methyl}benzamide]
- IC50: compound pretreatment concentration which inhibits 50% of the ACh induced response: most active

Compound: CCc1nc2c(cnn2CC)c(NC2CCOCC2)c1CNC(=O)c1cccc(C(=O)NCc2cc(-c3cccc(CN4CCN(C)CC4)c3)ccc2OC)c1 [Example 271, N-{[1,6-Diethyl-4-(tetrahydro-2H-pyran-4-ylamino)-1H-pyrazolo[3,4-b]pyridin-5-yl]methyl}-N′-({4-(methyloxy)-3′-[(4-methyl-1-piperazinyl)methyl]-3-biphenylyl}methyl)-1,3-benzenedicarboxamide]
- IC50: compound pretreatment concentration which inhibits 50% of the ACh induced response: most active

Compound: CCc1nc2c(cnn2CC)c(NC2CCOCC2)c1CNC(=O)c1cccc(C(=O)NCc2ccc(F)c(-c3cccc(CNC4CCCC4)c3)c2)c1 [Example 307, N-({3′-[(Cyclopentylamino)methyl]-6-fluoro-3-biphenylyl}methyl)-N′-{[1,6-diethyl-4-(tetrahydro-2H-pyran-4-ylamino)-1H-pyrazolo[3,4-b]pyridin-5-yl]methyl}-1,3-benzenedicarboxamide]
- IC50: compound pretreatment concentration which inhibits 50% of the ACh induced response: most active

Compound: CCc1nc2c(cnn2CC)c(NC2CCOCC2)c1CNC(=O)c1cccc(C(=O)NCc2ccc(F)c(-c3cccc(CNc4ccncc4)c3)c2)c1 [Example 311, N-{[1,6-Diethyl-4-(tetrahydro-2H-pyran-4-ylamino)-1H-pyrazolo[3,4-b]pyridin-5-yl]methyl}-N′-({6-fluoro-3′-[(4-pyridinylamino)methyl]-3-biphenylyl}methyl)-1,3-benzenedicarboxamide]
- IC50: compound pretreatment concentration which inhibits 50% of the ACh induced response: most active
